# Measured values taken from ChEMBL document CHEMBL5325509, “Pyrrolidinedione-thiazolidinone hybrid molecules with potent cytotoxic effect in squamous cell carcinoma SCC-15 cells” (Bioorg Med Chem, 2023).
# Calls of active or inactive are those of the source. The rule behind the calls is not given here.
# Legend:
# SCC-15 [1] = experiment: Cytotoxicity against human SCC-15 cells assessed as LDH release incubated for 24 hrs; format: functional, cell-based; details: SCC-15, 24 h
# SCC-15 [2] = experiment: Cytotoxicity against human SCC-15 cells assessed as LDH release incubated for 48 hrs; format: functional, cell-based; details: SCC-15, 48 h
# SCC-15 [3] = experiment: Cytotoxicity against human SCC-15 cells assessed as LDH release at 50 uM incubated for 48 hrs relative to control; format: functional
# SCC-15 [4] = experiment: Cytotoxicity against human SCC-15 cells assessed as LDH release at 100 uM incubated for 48 hrs relative to control; format: functional
# SCC-15 [5] = experiment: Cytotoxicity against human SCC-15 cells assessed as LDH release at 1 uM incubated for 48 hrs relative to control; format: functional
# SCC-15 [6] = experiment: Cytotoxicity against human SCC-15 cells assessed as LDH release at 10 uM incubated for 48 hrs relative to control; format: functional
# SCC-15 [7] = experiment: Cytotoxicity against human SCC-15 cells assessed as LDH release at 50 nM incubated for 48 hrs relative to control; format: functional
# SCC-15 [8] = experiment: Cytotoxicity against human SCC-15 cells assessed as decrease in cellular metabolic activity incubated for 24 hrs by resazurin reduction assay; format: functional, cell-based; details: SCC-15, 24 h
# SCC-15 [9] = experiment: Cytotoxicity against human SCC-15 cells assessed as decrease in cellular metabolic activity incubated for 48 hrs by resazurin reduction assay; format: functional, cell-based; details: SCC-15, 48 h
# SCC-15 [10] = experiment: Cytotoxicity against human SCC-15 cells assessed as decrease in cellular metabolic activity at 100 uM incubated for 24 hrs by resazurin reduction assay relative to control; format: functional; set-up: scale not given: the % may be the effect or the level left
# SCC-15 [11] = experiment: Cytotoxicity against human SCC-15 cells assessed as decrease in cellular metabolic activity at 10 to 100 uM incubated for 48 hrs by resazurin reduction assay relative to control; format: functional; set-up: scale not given: the % may be the effect or the level left; details: dose 10-100 µM
# HaCaT = experiment: Cytotoxicity against human HaCaT cells assessed reduction in cellular metabolic activity at 0.1 to 100 uM incubated for 24 to 72 hrs by MTT assay; format: toxicity, cell-based; details: dose lower 0.1 µM, time lower 24 hrs, dose upper 100 µM, time upper 72 hrs
# BALB/3T3 = experiment: Cytotoxicity against mouse BALB/3T3 cells assessed reduction in cellular metabolic activity at 0.1 to 100 uM incubated for 24 to 72 hrs by MTT assay; format: toxicity, cell-based; details: balb/3t3, 100 µM, dose lower 0.1 µM, time lower 24 hrs, dose upper 100 µM, time upper 72 hrs
# [12] = Cytotoxicity against human HaCaT cells assessed reduction in cellular metabolic activity incubated for 24 to 72 hrs by MTT assay; format: toxicity, cell-based
# [13] = Cytotoxicity against mouse BALB/3T3 cells assessed reduction in cellular metabolic activity incubated for 24 to 72 hrs by MTT assay; format: toxicity, cell-based
# [14] = Cytotoxicity against human HaCaT cells assessed reduction in cellular metabolic activity incubated for 72 hrs by MTT assay; format: toxicity, cell-based
# [15] = Cytotoxicity against mouse BALB/3T3 cells assessed reduction in cellular metabolic activity incubated for 72 hrs by MTT assay; format: toxicity, cell-based
# SCC-15 [16] = experiment: Induction of intracellular ROS generation in human SCC-15 cells at 0.001 to 1 uM incubated for 24 to 48 hrs by DCFH-DA staining based immunofluorescence analysis; format: functional, cell-based; details: dose 0.001-1 µM, time 24-48 hrs
# SCC-15 [17] = experiment: Induction of intracellular ROS generation in human SCC-15 cells at 50 to 100 uM incubated for 48 hrs by DCFH-DA staining based immunofluorescence analysis; format: functional; details: dose 50-100 µM
# [18] = Downregulation of Ki67 expression in PPARgamma-silenced human SCC-15 cells at 1 uM incubated for 48 hrs Western blot analysis relative to control; format: functional
# SCC-15 [19] = experiment: Induction of intracellular ROS generation in human SCC-15 cells incubated for 24 to 48 hrs by DCFH-DA staining based immunofluorescence analysis; format: functional, cell-based; details: dose 0.001-100 µM, time 24-48 hrs
# SCC-15 [20] = experiment: Induction of intracellular ROS generation in human SCC-15 cells at 0.001 to 100 uM by DCFH-DA staining based immunofluorescence analysis; format: functional, cell-based; details: dose 0.001-100 µM, time 24-48 hrs, TDE = time-dependent effect
# [21] = Upregulation of Caspase-3 activity in human SCC-15 cells at 100 uM measured after 24 hrs in presence of Ac-DEVD-AMC by fluorescence microplate reader analysis; format: functional
# [22] = Upregulation of Caspase-3 activity in human SCC-15 cells at 100 uM measured after 48 hrs in presence of Ac-DEVD-AMC by fluorescence microplate reader analysis; format: functional
# [23] = Upregulation of Caspase-3 activity in human SCC-15 cells at 50 uM measured after 24 hrs in presence of Ac-DEVD-AMC by fluorescence microplate reader analysis; format: functional
# [24] = Upregulation of Caspase-3 activity in human SCC-15 cells at 50 uM measured after 48 hrs in presence of Ac-DEVD-AMC by fluorescence microplate reader analysis; format: functional
# [25] = Downregulation of PPARgamma mRNA expression in human SCC-15 cells at 1 uM measured after 24 hrs by RT-PCR analysis (reference value: 79.68 %); format: functional
# [26] = Downregulation of AHR mRNA expression in human SCC-15 cells at 1 uM measured after 24 hrs by RT-PCR analysis (reference value: 17.30 %); format: functional
# [27] = Downregulation of NRFL2 mRNA expression in human SCC-15 cells at 1 uM measured after 24 hrs by RT-PCR analysis (reference value: 18.36 %); format: functional
# [28] = Upregulation of NRFL2 mRNA expression in PPARgamma knockdown human SCC-15 cells at 1 uM measured after 24 hrs by RT-PCR analysis; format: functional
# [29] = Downregulation of PPARgamma mRNA expression in PPARgamma-silenced human SCC-15 cells at 1 uM measured after 24 hrs by RT-PCR analysis; format: functional
# [30] = Downregulation of AHR mRNA expression in PPARgamma-silenced human SCC-15 cells at 1 uM measured after 24 hrs by RT-PCR analysis; format: functional
# [31] = Downregulation of NRFL2 mRNA expression in PPARgamma-silenced human SCC-15 cells at 1 uM measured after 24 hrs by RT-PCR analysis; format: functional
# [32] = Downregulation of AHR expression in PPARgamma-silenced human SCC-15 cells at 1 uM incubated for 48 hrs Western blot analysis relative to SiRNA control; format: functional
# [33] = Downregulation of PPARgamma expression in PPARgamma-silenced human SCC-15 cells at 1 uM incubated for 48 hrs Western blot analysis relative to control; format: functional
# [34] = Upregulation of PPARgamma expression in PPARgamma-silenced human SCC-15 cells at 1 uM incubated for 48 hrs Western blot analysis relative to control; format: functional
# [35] = Downregulation of PPARgamma expression in PPARgamma-silenced human SCC-15 cells at 1 uM incubated for 48 hrs Western blot analysis relative to SiRNA control; format: functional
# [36] = Downregulation of Ki67 expression in PPARgamma-silenced human SCC-15 cells at 1 uM incubated for 48 hrs Western blot analysis relative to siRNA control; format: functional
# [37] = Downregulation of PCNA expression in PPARgamma-silenced human SCC-15 cells at 1 uM incubated for 48 hrs Western blot analysis relative to control; format: functional
# [38] = Downregulation of PCNA expression in PPARgamma-silenced human SCC-15 cells at 1 uM incubated for 48 hrs Western blot analysis relative to siRNA control; format: functional
# Leukemic tumor cell line = experiment: Cytotoxicity against human Leukemic tumor cell line assessed as inhibition of cell growth measured at 72 hrs; format: functional, cell-based
# Breast carcinoma cell = experiment: Cytotoxicity against human Breast carcinoma cell assessed as inhibition of cell growth measured at 72 hrs; format: functional, cell-based
# [39] = Cytotoxicity against human Cervical carcinoma cell assessed as inhibition of cell growth measured at 72 hrs; format: functional, cell-based
# Colon carcinoma cell = experiment: Cytotoxicity against human Colon carcinoma cell assessed as inhibition of cell growth measured at 72 hrs; format: functional, cell-based
# Lung cancer cell line = experiment: Cytotoxicity against human Lung cancer cell line assessed as inhibition of cell growth measured at 72 hrs; format: functional, cell-based
# Glioblastoma cell line = experiment: Cytotoxicity against human Glioblastoma cell line assessed as inhibition of cell growth measured at 72 hrs; format: functional, cell-based
# SCC-15 [40] = experiment: Cytotoxicity against human SCC-15 cells assessed as LDH release at 1 to 100 uM incubated for 24 hrs relative to control; format: functional; details: dose 1-100 µM
# SCC-15 [41] = experiment: Cytotoxicity against human SCC-15 cells assessed as LDH release at 1 to 100 uM incubated for 48 hrs relative to control; format: functional; details: dose 1-100 µM
# SCC-15 [42] = experiment: Induction of intracellular ROS generation in human SCC-15 cells at 0.001 to 10 uM incubated for 24 hrs by DCFH-DA staining based immunofluorescence analysis; format: functional, cell-based; details: dose 0.001-10 µM
# SCC-15 [43] = experiment: Induction of intracellular ROS generation in human SCC-15 cells at 50 to 100 uM incubated for 24 hrs by DCFH-DA staining based immunofluorescence analysis; format: functional; details: dose 50-100 µM
# SCC-15 [44] = experiment: Induction of intracellular ROS generation in human SCC-15 cells at 0.001 to 10 uM incubated for 48 hrs by DCFH-DA staining based immunofluorescence analysis; format: functional; details: dose 0.001-10 µM
# SCC-15 [45] = experiment: Induction of intracellular ROS generation in human SCC-15 cells at 10 to 100 uM incubated for 48 hrs by DCFH-DA staining based immunofluorescence analysis; format: functional; details: dose 10-100 µM
# [46] = Upregulation of AHR expression in PPARgamma-silenced human SCC-15 cells at 1 uM incubated for 48 hrs Western blot analysis relative to control; format: functional
# [47] = Upregulation of PPARgamma expression in PPARgamma-silenced human SCC-15 cells at 1 uM incubated for 48 hrs Western blot analysis relative to SiRNA control; format: functional
Structure (SMILES),EC50 (SCC-15 [1]),EC50 (SCC-15 [2]),IC50 (SCC-15 [8]),IC50 (SCC-15 [9]),Activity (SCC-15 [10]),Activity (SCC-15 [11]),Activity (HaCaT),Activity (BALB/3T3),IC50 [12],IC50 [13],Activity [18],Activity (SCC-15 [19]),Activity (SCC-15 [20]),Activity [21],Activity [22],Activity [23],Activity [28],Activity [29],Activity [30],Activity [31],also measured
O=C1CC(N2C(=O)/C(=C/C(Cl)=C/c3ccc([N+](=O)[O-])cc3)SC2=S)C(=O)N1c1ccc(Br)cc1 (centres undefined),15.4 µM,16.9 µM,> 100 µM,39.9 µM,27.07%,24.52%,Non-Toxic,Non-Toxic,> 100 µM,> 100 µM,17%,Dose-Dependent Effect,Tde,121.15%,57.04%,42.87%,17.1%,73.1%,10.4%,26.91%,Activity (SCC-15 [3]): 178.4%; Activity (SCC-15 [4]): 328%; Activity (SCC-15 [5]): 1.2%; Activity (SCC-15 [6]): 30%; Activity (SCC-15 [7]): 2%; IC50 at 72 h [14]: 83.6 µM; IC50 at 72 h [15]: 85.2 µM; Activity (SCC-15 [16]): inactive; Activity (SCC-15 [17]): 12%; Activity [24]: 21.08%; Activity [25]: 12.29%; Activity [26]: 11.84%; Activity [27]: 8.55%; Activity [32]: 32.23%; Activity [33]: 14.43%; Activity [34]: 11.23%; Activity [35]: 18.45%; Activity [36]: 39.67%; Activity [37]: 12.74%; Activity [38]: 24.94%
O=C1CC(N2C(=O)/C(=C/C(Cl)=C/c3ccc([N+](=O)[O-])cc3)SC2=S)C(=O)N1c1ccc(Cl)cc1 (centres undefined),14.8 µM,10.2 µM,> 100 µM,30.4 µM,34.08%,31.6%,Non-Toxic,Non-Toxic,> 100 µM,> 100 µM,42.01%,Dose-Dependent Effect,Tde,135.01%,55.58%,29.03%,12.9%,82.31%,9.11%,30.64%,IC50 (Leukemic tumor cell line): 1000 nM; IC50 (Breast carcinoma cell): 1000 nM; IC50 [39]: 1000 nM; IC50 (Colon carcinoma cell): 1000 nM; IC50 (Lung cancer cell line): 1000 nM; IC50 (Glioblastoma cell line): 1000 nM; Activity (SCC-15 [40]): 2%; Activity (SCC-15 [41]): 49.3%; Activity (SCC-15 [42]): inactive; Activity (SCC-15 [43]): 18.64%; Activity (SCC-15 [44]): 15.81%; Activity (SCC-15 [45]): 13.13%; Activity [46]: 17.79%; Activity [32]: 32.59%; Activity [33]: 46.82%; Activity [34]: 23.81%; Activity [47]: 26.46%; Activity [36]: 44.91%; Activity [38]: 34.64%
